{"source": "ChEMBL document CHEMBL1201862", "about": "“PubChem BioAssay data set” (2004)", "key": {"[1]": {"biological_target": "Transitional endoplasmic reticulum ATPase (Homo sapiens, UniProt P55072, C522A)", "sequence (P55072 2-806 C522A limits assumed)": "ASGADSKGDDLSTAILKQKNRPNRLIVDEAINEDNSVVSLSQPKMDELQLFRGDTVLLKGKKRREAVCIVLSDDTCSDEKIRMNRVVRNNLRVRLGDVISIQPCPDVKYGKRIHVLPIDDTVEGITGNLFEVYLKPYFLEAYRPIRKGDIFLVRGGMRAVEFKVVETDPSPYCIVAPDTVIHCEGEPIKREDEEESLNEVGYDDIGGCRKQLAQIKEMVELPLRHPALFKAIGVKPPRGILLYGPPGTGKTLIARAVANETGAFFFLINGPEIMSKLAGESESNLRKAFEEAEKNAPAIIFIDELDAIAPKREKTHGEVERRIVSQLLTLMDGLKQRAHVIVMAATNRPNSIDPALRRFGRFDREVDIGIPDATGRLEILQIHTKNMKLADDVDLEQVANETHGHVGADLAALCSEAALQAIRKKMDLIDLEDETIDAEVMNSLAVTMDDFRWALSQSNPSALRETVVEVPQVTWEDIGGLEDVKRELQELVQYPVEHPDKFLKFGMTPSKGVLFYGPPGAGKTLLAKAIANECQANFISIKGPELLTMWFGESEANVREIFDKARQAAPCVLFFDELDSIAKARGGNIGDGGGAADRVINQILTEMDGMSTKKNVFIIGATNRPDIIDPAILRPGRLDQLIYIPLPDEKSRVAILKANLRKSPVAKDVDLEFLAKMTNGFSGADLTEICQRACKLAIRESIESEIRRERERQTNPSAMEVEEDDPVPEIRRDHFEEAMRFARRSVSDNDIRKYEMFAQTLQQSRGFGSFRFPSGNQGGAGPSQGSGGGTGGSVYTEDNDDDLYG", "test": "C522A mutant p97 ATPase inhibitors, dose response, counter-screen for p97 inhibitor project, biochemical, luminescence (AID 1544)"}, "[2]": {"biological_target": "T1, Microphthalmia-associated transcription factor (Homo sapiens, UniProt O75030)", "T1 sequence (O75030 whole entry)": "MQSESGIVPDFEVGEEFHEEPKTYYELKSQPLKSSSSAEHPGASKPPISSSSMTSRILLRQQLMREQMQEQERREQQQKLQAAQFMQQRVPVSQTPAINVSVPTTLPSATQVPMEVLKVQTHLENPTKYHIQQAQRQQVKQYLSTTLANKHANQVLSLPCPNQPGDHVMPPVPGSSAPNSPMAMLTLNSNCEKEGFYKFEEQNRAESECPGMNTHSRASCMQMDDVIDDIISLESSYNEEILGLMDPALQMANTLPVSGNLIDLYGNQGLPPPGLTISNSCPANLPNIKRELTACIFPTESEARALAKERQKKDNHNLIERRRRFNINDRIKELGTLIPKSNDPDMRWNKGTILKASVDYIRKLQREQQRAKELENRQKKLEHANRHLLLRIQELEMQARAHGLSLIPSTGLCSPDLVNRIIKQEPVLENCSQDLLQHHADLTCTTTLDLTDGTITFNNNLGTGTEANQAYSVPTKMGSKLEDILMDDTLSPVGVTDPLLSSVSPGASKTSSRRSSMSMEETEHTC", "test": "reducers of TRPM1 reporter luminescence, concentration series – cell-based, SK-MEL-5, cherry-picked, set 3, MITF inhibitor project, dose response (AID 493073);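 note: SK-MEL-5 melanoma cells with luciferase driven by the MITF target TRPM1 promoter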", "type": "functional"}, "[3]": {"biological_target": "Transitional endoplasmic reticulum ATPase (Homo sapiens, UniProt P55072)", "sequence (P55072 whole entry)": "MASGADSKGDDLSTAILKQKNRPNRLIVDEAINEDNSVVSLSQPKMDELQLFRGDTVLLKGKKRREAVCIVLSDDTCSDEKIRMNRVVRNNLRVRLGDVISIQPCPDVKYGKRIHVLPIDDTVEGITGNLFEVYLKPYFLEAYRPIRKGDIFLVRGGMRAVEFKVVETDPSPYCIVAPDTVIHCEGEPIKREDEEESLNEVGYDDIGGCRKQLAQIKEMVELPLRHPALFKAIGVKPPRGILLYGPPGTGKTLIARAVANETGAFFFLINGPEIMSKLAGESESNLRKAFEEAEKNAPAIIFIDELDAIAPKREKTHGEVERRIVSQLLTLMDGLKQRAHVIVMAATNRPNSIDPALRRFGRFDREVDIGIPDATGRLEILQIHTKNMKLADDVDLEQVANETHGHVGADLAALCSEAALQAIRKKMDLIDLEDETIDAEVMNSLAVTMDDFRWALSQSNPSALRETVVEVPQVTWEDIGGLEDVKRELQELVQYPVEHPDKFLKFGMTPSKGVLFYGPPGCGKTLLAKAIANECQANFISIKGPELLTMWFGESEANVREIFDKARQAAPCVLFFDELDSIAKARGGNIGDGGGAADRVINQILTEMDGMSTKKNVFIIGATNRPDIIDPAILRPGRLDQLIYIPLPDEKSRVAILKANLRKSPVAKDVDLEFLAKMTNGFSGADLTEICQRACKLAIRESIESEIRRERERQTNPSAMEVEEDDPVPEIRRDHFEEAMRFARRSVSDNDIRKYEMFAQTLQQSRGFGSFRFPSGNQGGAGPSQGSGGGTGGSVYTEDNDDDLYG", "test": "p97 ATPase inhibitors, dose response, biochemical (AID 1534)"}, "[4]": {"biological_target": "Cytochrome P450 2D6 (Homo sapiens, UniProt P10635)", "sequence (P10635 whole entry)": "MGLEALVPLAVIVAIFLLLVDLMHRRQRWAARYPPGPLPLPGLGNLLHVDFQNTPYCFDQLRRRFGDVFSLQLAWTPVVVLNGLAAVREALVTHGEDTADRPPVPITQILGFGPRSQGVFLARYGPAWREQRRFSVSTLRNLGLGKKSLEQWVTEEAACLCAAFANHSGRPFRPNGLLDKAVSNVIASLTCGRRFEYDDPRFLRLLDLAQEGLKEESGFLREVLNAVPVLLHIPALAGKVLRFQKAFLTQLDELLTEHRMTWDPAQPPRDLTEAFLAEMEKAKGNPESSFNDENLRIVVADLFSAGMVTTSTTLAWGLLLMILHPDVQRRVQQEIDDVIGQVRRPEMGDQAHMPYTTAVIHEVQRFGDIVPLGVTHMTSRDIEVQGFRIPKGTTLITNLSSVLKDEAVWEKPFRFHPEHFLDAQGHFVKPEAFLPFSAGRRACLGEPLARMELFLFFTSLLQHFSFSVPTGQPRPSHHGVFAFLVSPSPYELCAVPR", "test": "qHTS Assay for Inhibitors and Substrates of Cytochrome P450 2D6. [Related pubchem assays: 410 ]", "type": "ADME", "conditions": "read-out: Potency"}, "[5]": {"biological_target": "Cytochrome P450 2C19 (Homo sapiens, UniProt P33261)", "sequence (P33261 whole entry)": "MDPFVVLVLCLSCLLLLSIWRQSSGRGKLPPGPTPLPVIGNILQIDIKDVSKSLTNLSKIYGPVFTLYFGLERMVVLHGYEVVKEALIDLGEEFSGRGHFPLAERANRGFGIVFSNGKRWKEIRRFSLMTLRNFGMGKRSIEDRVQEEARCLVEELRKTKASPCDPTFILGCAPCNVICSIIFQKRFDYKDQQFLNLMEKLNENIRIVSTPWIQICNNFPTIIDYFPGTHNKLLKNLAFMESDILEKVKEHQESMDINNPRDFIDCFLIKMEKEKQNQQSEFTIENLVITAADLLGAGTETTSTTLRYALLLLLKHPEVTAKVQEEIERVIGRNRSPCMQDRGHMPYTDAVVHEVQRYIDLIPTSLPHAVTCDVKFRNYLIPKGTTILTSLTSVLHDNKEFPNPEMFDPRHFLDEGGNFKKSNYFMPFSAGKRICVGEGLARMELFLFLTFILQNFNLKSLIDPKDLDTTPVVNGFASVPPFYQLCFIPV", "test": "qHTS Assay for Inhibitors and Substrates of Cytochrome P450 2C19. [Related pubchem assays: 410 ]", "type": "ADME", "conditions": "read-out: Potency"}, "[6]": {"test": "Counterscreen for IDE inhibitors: Luminescence-based cell-based high throughput dose response assay to identify compounds that are cytotoxic to HEK cells. [Related pubchem assays: 434962 (Primary screen (IDE inhibitors in singlicate)), 449730 (Counterscreen (Cytotoxicity in triplicate)), 435028 (Confirmation (IDE inhibitors in triplicate)) …", "type": "functional", "conditions": "HEK293"}, "[7]": {"test": "HEK-293T cell viability reduction – luminescence, B-cell screen hits, cytotoxicity control for BCR NF-kB inhibitor project, dose response (AID 489021);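 note: cells exposed to compound for about 14 hours before viability readout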", "type": "functional, cell-based"}, "[8]": {"biological_target": "Protein Wnt-3a (Mus musculus, UniProt P27467)", "sequence (P27467 whole entry)": "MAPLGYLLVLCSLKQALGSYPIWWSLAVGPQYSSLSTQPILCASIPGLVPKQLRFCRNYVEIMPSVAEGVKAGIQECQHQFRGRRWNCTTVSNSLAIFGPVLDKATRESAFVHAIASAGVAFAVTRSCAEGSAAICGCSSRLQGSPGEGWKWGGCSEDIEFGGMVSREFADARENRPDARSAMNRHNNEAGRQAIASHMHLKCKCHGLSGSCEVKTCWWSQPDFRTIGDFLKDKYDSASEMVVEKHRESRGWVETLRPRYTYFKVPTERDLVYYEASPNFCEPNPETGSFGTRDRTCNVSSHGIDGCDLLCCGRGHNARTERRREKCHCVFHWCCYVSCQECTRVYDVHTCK", "test": "antagonism of Wnt3a pathway luciferase reporter – Wnt-LIGHT cells, luminescence, selectivity assay for Gli-SUFU antagonist project, dose response (AID 651570);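 note: Wnt-LIGHT reporter cells stimulated with conditioned medium from Wnt3a-producing cells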", "type": "functional", "conditions": "read-out: IC50_Mean"}, "[9]": {"biological_target": "T2, Insulin-degrading enzyme (Homo sapiens, UniProt P14735)", "T2 sequence (P14735 whole entry)": "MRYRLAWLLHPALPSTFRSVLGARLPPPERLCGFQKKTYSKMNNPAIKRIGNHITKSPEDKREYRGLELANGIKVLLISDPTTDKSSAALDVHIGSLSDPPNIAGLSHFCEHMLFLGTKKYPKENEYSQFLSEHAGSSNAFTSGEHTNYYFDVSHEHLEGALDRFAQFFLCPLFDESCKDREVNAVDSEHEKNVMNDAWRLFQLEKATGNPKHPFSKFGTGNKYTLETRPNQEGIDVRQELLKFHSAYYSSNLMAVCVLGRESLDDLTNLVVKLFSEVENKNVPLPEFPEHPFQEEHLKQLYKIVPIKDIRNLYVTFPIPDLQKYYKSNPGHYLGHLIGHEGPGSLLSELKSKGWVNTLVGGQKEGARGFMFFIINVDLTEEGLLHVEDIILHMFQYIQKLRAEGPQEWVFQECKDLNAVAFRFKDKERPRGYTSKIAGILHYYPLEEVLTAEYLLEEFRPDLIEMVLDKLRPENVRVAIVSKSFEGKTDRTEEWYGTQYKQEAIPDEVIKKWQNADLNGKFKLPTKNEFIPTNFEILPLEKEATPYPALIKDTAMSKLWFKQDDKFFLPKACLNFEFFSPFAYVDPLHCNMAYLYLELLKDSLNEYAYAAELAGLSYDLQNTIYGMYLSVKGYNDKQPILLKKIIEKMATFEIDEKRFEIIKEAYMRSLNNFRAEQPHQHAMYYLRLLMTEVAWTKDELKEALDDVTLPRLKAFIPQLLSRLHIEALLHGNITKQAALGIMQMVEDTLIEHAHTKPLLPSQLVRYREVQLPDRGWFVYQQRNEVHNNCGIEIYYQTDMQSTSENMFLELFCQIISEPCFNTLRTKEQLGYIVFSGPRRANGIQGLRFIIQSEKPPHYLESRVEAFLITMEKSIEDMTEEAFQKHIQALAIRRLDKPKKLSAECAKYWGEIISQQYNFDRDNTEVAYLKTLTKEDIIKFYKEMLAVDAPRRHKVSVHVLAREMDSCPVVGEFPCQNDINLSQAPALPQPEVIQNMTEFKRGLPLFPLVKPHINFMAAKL", "test": "Dose Response: Fluorescence polarization-based cell-based high throughput dose response assay for inhibitors of insulin-degrading enzyme (IDE). [Related pubchem assays: 434962 (Primary screen (IDE inhibitors in singlicate)), 449730 (Counterscreen (Cytotoxicity in triplicate)), 435028 (Confirmation (IDE inhibitors in triplicate)), 434984 (Summary …", "type": "functional"}, "[10]": {"test": "cells", "type": "functional, cell-based"}, "[11]": {"test": "alpha-synuclein stem-loop translation blockers – luminescence, H4 neuroglioblastoma cells, dose confirmation, confirmation (AID 2454);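 note: potency for inhibition of the luciferase signal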", "type": "functional, cell-based"}, "[12]": {"test": "luciferase reporter signal suppression in cells – H4 neuroglioma cells, luminescence, dose response (AID 1990)", "type": "functional, cell-based"}, "[13]": {"test": "alpha-synuclein stem-loop luciferase translation blockers – H4 neuroglioma cells, luminescence, confirmation (AID 1988)", "type": "functional, cell-based"}, "[14]": {"test": "luciferase reporter signal reduction – luminescence, H4-C neuroglioblastoma cells, dose response (AID 2458);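 note: H4 neuroglioblastoma cells stably carrying a luciferase reporter gene fusion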", "type": "functional, cell-based"}}, "note": "The source made the active and inactive calls.", "data": [{"smiles": "Cn1cc(C(=O)CCl)c2ccccc21", "values": [{"measurement": "IC50", "setting": "[1]", "value": "> 50 µM (not active)"}, {"measurement": "AC50", "setting": "[2]", "value": "8.48 µM (active)"}, {"measurement": "IC50", "setting": "[3]", "value": "> 50 µM (not active)"}]}, {"smiles": "CCN(CC)[C@@H](C)C(=O)N1c2ccccc2Sc2ccccc21", "values": [{"measurement": "AC50", "setting": "[4]", "value": "20 µM (inconclusive)"}, {"measurement": "AC50", "setting": "[5]", "value": "31.6 µM (inconclusive)"}]}, {"smiles": "CC1CCN(c2c(NCc3ccc(C(=O)N4c5ccccc5CC4C)cc3)c(=O)c2=O)CC1", "note": "(centres undefined)", "values": [{"measurement": "IC50", "setting": "[6]", "value": "17.6 µM (not active)"}, {"measurement": "IC50", "setting": "[7]", "value": "> 80 µM (inactive)"}, {"measurement": "IC50", "setting": "[8]", "value": "16.4 µM (active)"}, {"measurement": "IC50", "setting": "[9]", "value": "2.98 µM (active)"}]}, {"smiles": "O=Cc1cn(Cc2ccccc2F)c2ccccc12", "values": [{"measurement": "EC50", "setting": "[10]", "value": "1.75 µM (active)"}, {"measurement": "EC50", "setting": "[11]", "value": "2.11 µM (active)"}, {"measurement": "EC50", "setting": "[12]", "value": "14 µM (active)"}, {"measurement": "EC50", "setting": "[13]", "value": "< 0.1 µM (active)"}, {"measurement": "EC50", "setting": "[14]", "value": "3.85 µM (active)"}]}]}
